Assay results as given in ChEMBL document CHEMBL1147583, “Respiratory syncytial virus inhibitors. Part 2: Benzimidazol-2-one derivatives” (Bioorg Med Chem Lett, 2004).

Key:
[1] = Therapeutic index expressed as the ratio between CC50 and EC50; format: cell-based; conditions: human, HEp-2 cells; read-out: Therapeutic index
HEp-2 [2] = test: Antiviral activity against respiratory syncytial virus in HEp-2 human […] epithelial carcinoma cell line; format: functional, cell-based
HEp-2 [3] = test: Cytotoxic activity against uninfected HEp-2 human […] epithelial carcinoma cell line; format: functional

Structure (SMILES)	EC50 (HEp-2 [2]) [nM]	selectivity ratio [1]	CC50 (HEp-2 [3]) [nM]
OCCCCn1c(Cn2c(O)nc3ccccc32)nc2ccccc21	173	> 971	> 168000
CC(=O)n1c(=O)n(Cc2nc3ccccc3n2CCC(C)C)c2ccccc21	710	162	116000
CCn1c(=O)n(Cc2nc3ccccc3n2CCCCO)c2ccccc21	14	11000	154000
N#CCCn1c(Cn2c(=O)n(-c3ccccc3)c3ccccc32)nc2ccccc21	5	17400	87000
C=C(C)n1c(=O)n(Cc2nc3ccccc3[nH]2)c2ccccc21	750	38	28400
CC(C)CCn1c(Cn2c(=O)n(CCCC#N)c3ccccc32)nc2ccccc21	40	1490	59600
C=C(C)n1c(=O)n(Cc2nc3ccccc3n2CCCCCCC#N)c2ccccc21	6	> 6000	36000
CCn1c(=O)n(Cc2nc3ccccc3n2CCCO)c2ccccc21	10	17900	179000
CC(C)CCn1c(Cn2c(=O)n(S(=O)(=O)N(C)C)c3ccccc32)nc2ccccc21	62	437	27100
CS(=O)(=O)CCCn1c(Cn2c(O)nc3ccccc32)nc2ccccc21	1490	144	216000
CC(C)CCn1c(Cn2c(=O)n(Cc3ccc(S(C)(=O)=O)cc3)c3ccccc32)nc2ccccc21	9	833	7500
C=C(C)n1c(=O)n(Cc2nc3ccccc3n2CCCS(C)(=O)=O)c2ccccc21	30	4110	123000
CC(C)CCn1c(Cn2c(=O)n(C(=O)NCc3ccccc3)c3ccccc32)nc2ccccc21	86	74	6440
C=C(C)n1c(=O)n(Cc2nc3ccccc3n2CCCCO)c2ccccc21	4	42700	171000
CCn1c(=O)n(Cc2nc3ccccc3n2CCO)c2ccccc21	229	279	64100
CC(C)CCn1c(Cn2c(=O)n(C(=O)Nc3ccccc3)c3ccccc32)nc2ccccc21	41	526	21600
CCn1c(=O)n(Cc2nc3ccccc3n2CC(O)c2ccccc2)c2ccccc21 (stereo not given)	37	> 6500	> 241000
CC(C)CCn1c(Cn2c(=O)n(S(C)(=O)=O)c3ccccc32)nc2ccccc21	7	2330	16300

Structure (SMILES)	EC50 (HEp-2 [2]) [nM]	selectivity ratio [1]	CC50 (HEp-2 [3]) [nM]
CCn1c(=O)n(Cc2nc3ccccc3n2CC(=O)c2ccccc2)c2ccccc21	112	241	27100
C=C(C)n1c(=O)n(Cc2nc3ccccc3n2CCCCCCO)c2ccccc21	114	> 2170	> 247000
CC(C)CCn1c(Cn2c(=O)n(C(N)=O)c3ccccc32)nc2ccccc21	50	2670	134000
CS(=O)(=O)CCCn1c(Cn2c(=O)n(CCCCO)c3ccccc32)nc2ccccc21	92	> 2490	> 229000
CC(C)n1c(=O)n(Cc2nc3ccccc3n2CCC#N)c2ccccc21	8	9190	73500
CC1(CCn2c(Cn3c(=O)n(Cc4cc(I)c(O)c(I)c4)c4ccccc43)nc3ccccc32)N=N1	38	713	27100
N#Cc1ccc(Cn2c(=O)n(Cc3nc4ccccc4n3CCCCO)c3ccccc32)cc1	53	739	39200
CC(C)CCn1c(Cn2c(=O)n(CCCCCC#N)c3ccccc32)nc2ccccc21	25	536	13400
CC1(CCn2c(Cn3c(=O)n(Cc4ccc(O)cc4)c4ccccc43)nc3ccccc32)N=N1	4	> 28000	> 220000
CCOC(=O)n1c(=O)n(Cc2nc3ccccc3n2CCC(C)C)c2ccccc21	298	193	57700
C=C(C)n1c(=O)n(Cc2nc3ccccc3n2CCCCC#N)c2ccccc21	27	7140	193000
C=C(C)n1c(=O)n(Cc2nc3ccccc3n2CCC(C)=O)c2ccccc21	5	48900	245000
CS(=O)(=O)CCCn1c(Cn2c(=O)n(CCCCC#N)c3ccccc32)nc2ccccc21	71	> 3020	> 214000
CCn1c(=O)n(Cc2nc3ccccc3n2CCC(C)C)c2ccccc21	11	1690	18600
CC(C)CCn1c(Cn2c(=O)n(Cc3cc(I)c(O)c(I)c3)c3ccccc32)nc2ccccc21	686	> 209	> 144000
CC(C)CCn1c(Cn2c(=O)n(Cc3ccc(S(=O)(=O)N(C)C)cc3)c3ccccc32)nc2ccccc21	4	> 38200	> 153000
CC(C)CCn1c(Cn2c(=O)n(Cc3ccc(O)cc3)c3ccccc32)nc2ccccc21	18	3330	59900
CCNC(=O)n1c(=O)n(Cc2nc3ccccc3n2CCC(C)C)c2ccccc21	52	359	18700

Continued by falling EC50 (HEp-2 [2]), values first:

EC50 (HEp-2 [2]) [nM]	Structure (SMILES)	selectivity ratio [1]	CC50 (HEp-2 [3]) [nM]
416	CC(O)CCn1c(Cn2c(O)nc3ccccc32)nc2ccccc21 (stereo not given)	> 629	> 262000
191	CC(=O)CCn1c(Cn2c(O)nc3ccccc32)nc2ccccc21	1560	299000
99	N#CCCn1c(Cn2c(O)nc3ccccc32)nc2ccccc21	> 3130	> 310000
65	CC(C)CCn1c(Cn2c(=O)n(S(=O)(=O)C(C)C)c3ccccc32)nc2ccccc21	260	16900
57	CC(C)CCn1c(Cn2c(O)nc3ccccc32)nc2ccccc21	1070	61100
35	CC(C)CCn1c(Cn2c(=O)n(CCCCC#N)c3ccccc32)nc2ccccc21	428	15000
28	CC(C)CCn1c(Cn2c(=O)n(CC#N)c3ccccc32)nc2ccccc21	1670	46800
28	C=C(C)n1c(=O)n(Cc2nc3ccccc3n2CCC(C)O)c2ccccc21 (stereo not given)	6130	172000
25	N#CCCCCn1c(=O)n(Cc2nc3ccccc3n2CCCC#N)c2ccccc21	> 9090	> 242000
21	CC(C)CCn1c(Cn2c(=O)n(Cc3ccc(C(=O)N(C)C)cc3)c3ccccc32)nc2ccccc21	1270	26600
16	C=CCn1c(=O)n(Cc2nc3ccccc3n2CCC(C)C)c2ccccc21	800	12800
15	C=C(C)n1c(=O)n(Cc2nc3ccccc3n2CCC#N)c2ccccc21	5310	79600
13	C=C(C)n1c(=O)n(Cc2nc3ccccc3n2CCCCCC#N)c2ccccc21	946	12300
12	CC(C)CCn1c(Cn2c(=O)n(Cc3ccc(C#N)cc3)c3ccccc32)nc2ccccc21	465	5590
11	CC(C)n1c(=O)n(Cc2nc3ccccc3n2CCCCO)c2ccccc21	6210	68300
5	CC(C)n1c(=O)n(Cc2nc3ccccc3n2CCCCCCC#N)c2ccccc21	> 37800	> 189000
5	C=C(C)n1c(=O)n(Cc2nc3ccccc3n2CCCC#N)c2ccccc21	–	–
4	C=C(C)n1c(=O)n(Cc2nc3ccccc3n2CCC(C)C)c2ccccc21	6180	24700
